“And” between values parts separate entries of the source, which are not always exact repeats. Equal entries are not always repeated.
How the values were obtained:
[1] = system: delayed hypersensitivity in mouse auricle skin caused by 2,4-dinitrochlorobenzene; assay: Delayed hypersensitivity in mouse auricle skin caused by 2,4-dinitrochlorobenzene; assay type: in vivo, Kunming mice; conditions: mice
Description: A 5% 2,4-dinitrochlorobenzene solution in ethanol was applied onto the abdominal skin (shaved) of the mice for sensitization. […] 7 days after sensitization, a 1% 2,4-dinitrochlorobenzene solution was applied onto the right ear, and the mice were sacrificed after 24 hours, and both ears were cut off along the auricle baseline. Discs having a diameter of 8 mm were punctured out at the same position on both ears, precisely weighed on an electronic balance, and the weight difference between the left and right ears was taken as the value for delayed hypersensitivity.

[2] = system: local itching in mice caused by low-molecular-weight dextran; assay: Local itching in mice caused by low-molecular-weight dextran; assay type: in vivo, Kunming mice
Description: Intragastric administration was carried out to the mice once per day for 10 consecutive days. 30 min after the final administration, a 0.0125% low-molecular-weight dextran solution was injected at 0.1 g/10 g into the tail vein. The number of itching events (itching events were indicated by scratching on the head with front paws, scratching on the body with hind paws, and biting on various parts over the body) occurred within 30 min after injection with the low-molecular-weight dextran solution into tail veins of the mice in each group was observed and recorded. […] The number of itching events (itching events were indicated by scratching on the head with front paws, scratching on the body with hind paws, and biting on various parts over the body) occurred within 30 min after injection with the low-molecular-weight dextran solution into tail veins of the mice in each group was observed and recorded. […] The number of itching events (itching events were indicated by scratching on the head with front paws, scratching on the body with hind paws, and biting on various parts over the body) occurred within 30 min after injection with the low-molecular-weight dextran solution into tail veins of the mice in each group was observed and recorded. […] The number of itching events (itching events were indicated by scratching on the head with front paws, scratching on the body with hind paws, and biting on various parts over the body) occurred within 30 min after injection with the low-molecular-weight dextran solution into tail veins of the mice in each group was observed and recorded.

[3] = system: passive anaphylaxis (PCA) in rats caused by ovalbumin; assay: Passive anaphylaxis (PCA) in rats caused by ovalbumin: diameter of blue spots, mast cell degranulation, serum histamine; assay type: in vivo, SD rats; conditions: for Diameter of blue spots 1:4: 1:4 anti-ovalbumin serum; for Diameter of blue spots 1:8: 1:8 anti-ovalbumin serum
Description: On day 15, the back of the rats were shaved, and was intradermally injected with a diluted antiserum at two spots on each side with 0.1 ml per spot. After 48 hours, a 1.0 ml mixed solution of 1% Evans Blue and 1% ovalbumin in physiological saline was injected into the tail vein of each rat. […] The rats were then sacrificed, and their back skin was inverted to measure the diameter of blue reaction spots to determine the difference between the dosing groups and the model group. A sample of the rat skin tissue was fixed with neutral formaldehyde, dehydrated with an alcohol gradient, embedded in paraffin, and examined for mast cell degranulation in the tissue[^3]. […] On day 15, the back of the rats were shaved, and was intradermally injected with a diluted antiserum at two spots on each side with 0.1 ml per spot. After 48 hours, a 1.0 ml mixed solution of 1% Evans Blue and 1% ovalbumin in physiological saline was injected into the tail vein of each rat. […] The rats were then sacrificed, and their back skin was inverted to measure the diameter of blue reaction spots to determine the difference between the dosing groups and the model group. A sample of the rat skin tissue was fixed with neutral formaldehyde, dehydrated with an alcohol gradient, embedded in paraffin, and examined for mast cell degranulation in the tissue^[3]. […] On day 15, the back of the rats were shaved, and was intradermally injected with a diluted antiserum at two spots on each side with 0.1 ml per spot. After 48 hours, a 1.0 ml mixed solution of 1% Evans Blue and 1% ovalbumin in physiological saline was injected into the tail vein of each rat. […] The rats were then sacrificed, and their back skin was inverted to measure the diameter of blue reaction spots to determine the difference between the dosing groups and the model group. A sample of the rat skin tissue was fixed with neutral formaldehyde, dehydrated with an alcohol gradient, embedded in paraffin, and examined for mast cell degranulation in the tissue^[3]. […] On day 15, the back of the rats were shaved, and was intradermally injected with a diluted antiserum at two spots on each side with 0.1 ml per spot. After 48 hours, a 1.0 ml mixed solution of 1% Evans Blue and 1% ovalbumin in physiological saline was injected into the tail vein of each rat. […] The rats were then sacrificed, and their back skin was inverted to measure the diameter of blue reaction spots to determine the difference between the dosing groups and the model group. A sample of the rat skin tissue was fixed with neutral formaldehyde, dehydrated with an alcohol gradient, embedded in paraffin, and examined for mast cell degranulation in the tissue^[3]. […] On day 15, the back of the rats were shaved, and was intradermally injected with a diluted antiserum at two spots on each side with 0.1 ml per spot. After 48 hours, a 1.0 ml mixed solution of 1% Evans Blue and 1% ovalbumin in physiological saline was injected into the tail vein of each rat. […] The rats were then sacrificed, and their back skin was inverted to measure the diameter of blue reaction spots to determine the difference between the dosing groups and the model group. A sample of the rat skin tissue was fixed with neutral formaldehyde, dehydrated with an alcohol gradient, embedded in paraffin, and examined for mast cell degranulation in the tissue^[3]. […] On day 15, the back of the rats were shaved, and was intradermally injected with a diluted antiserum at two spots on each side with 0.1 ml per spot. After 48 hours, a 1.0 ml mixed solution of 1% Evans Blue and 1% ovalbumin in physiological saline was injected into the tail vein of each rat. […] The rats were then sacrificed, and their back skin was inverted to measure the diameter of blue reaction spots to determine the difference between the dosing groups and the model group.

[4] = prednisone 5.0 mg, Composition 6 study
[5] = prednisone 5.0 mg, Composition 7 study
[6] = prednisone 5.0 mg, Composition 8 study

Structure (SMILES): C[C@]12C=CC(=O)C=C1CC[C@@H]1[C@@H]2C(=O)C[C@@]2(C)[C@H]1CC[C@]2(O)C(=O)CO [prednisone]
- swelling degree of mouse auricle discs ([1]; positive control prednisone 5.0 mg (5 mg/kg) i.g. once daily 10 days): 5.07 ± 0.59 mg and 4.22 ± 0.96 mg and 4.80 ± 0.73 mg
- swelling degree of mouse auricle discs [1, 4]: 4.62 ± 0.79 mg
- swelling degree of mouse auricle discs [1, 5]: 4.84 ± 0.70 mg
- swelling degree of mouse auricle discs [1, 6]: 4.60 ± 0.82 mg
- Number of itching events (30 min) [2, 4]: 15.43 ± 4.56
- Number of itching events (30 min) [2, 5]: 15.57 ± 5.33
- Number of itching events (30 min) [2, 6]: 14.88 ± 5.08
- Number of itching events (30 min) ([2]; within 30 min after dextran, positive control prednisone 5.0 mg i.g. once daily 10 days): 18.30 ± 4.62 and 14.25 ± 6.72 and 17.20 ± 4.08
- Diameter of blue spots 1:4 [3, 4]: 13.22 ± 1.90 mm
- Diameter of blue spots 1:4 [3, 5]: 12.48 ± 2.16 mm
- Diameter of blue spots 1:4 [3, 6]: 12.82 ± 2.62 mm
- Diameter of blue spots 1:8 [3, 4]: 8.65 ± 1.52 mm
- Diameter of blue spots 1:8 [3, 5]: 8.32 ± 1.63 mm
- Diameter of blue spots 1:8 [3, 6]: 8.54 ± 1.82 mm
- Diameter of blue spots (mm) 1:4 ([3]; antiserum 1:4, positive control prednisone 5.0 mg (5 mg/kg) i.g. once daily 14 days): 12.79 ± 1.88 mm and 11.94 ± 1.90 mm and 11.35 ± 1.74 mm
- Diameter of blue spots (mm) 1:8 ([3]; antiserum 1:8, positive control prednisone 5.0 mg (5 mg/kg) i.g. once daily 14 days): 6.72 ± 1.31 mm
- Degranulation (mast cell) [3, 4]: 19.80 ± 10.57
- Histamine fluorescence (serum histamine content) [3, 4]: 2.07 ± 0.76 mg·L
- Degranulation (mast cell) [3, 5]: 17.54 ± 11.23
- Histamine fluorescence (serum histamine content) [3, 5]: 2.11 ± 0.70 mg·L
- Degranulation (mast cell) [3, 6]: 17.95 ± 11.82
- Histamine fluorescence (serum histamine content) [3, 6]: 2.25 ± 0.76 mg·L
- Degranulation (mast cell) ([3]; skin tissue, positive control prednisone 5.0 mg (5 mg/kg) i.g. once daily 14 days): 22.54 ± 11.25 and 19.46 ± 8.72 and 21.33 ± 10.48
